Here are results for 13 compounds from PubChem BioAssay (NCI).

Among the test systems are 786-0 renal; ACHN renal; DMS 114 small cell lung; HOP-62 NSCLC; HS 578T breast; KM20L2 colon; M19-MEL melanoma; SK-OV-3 ovarian; UACC-257 melanoma; UACC-62 melanoma.
Holding throughout (experiment): NCI tumour cell line growth inhibition, 48 h

Molecules are shown by their SMILES. Several values for one entry are separate records, joined by “and”; a condition that tells them apart may be missing. Identical values can stand only once.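 Compound exposure: 48 hours, 5 concentrations, 96-well plates. The concentration for 50% growth inhibition is given as GI50. TGI denotes the concentration required for complete inhibition of growth.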 Bounds are passed on as bounds.

Take `CCOC(=O)NC1=C(N2CC2)C(=O)C(NC(=O)OCC)=C(N2CC2)C1=O`: the GI50 is 4.02 µM and 1.78 µM in the assay with 786-0 renal; 1.32 µM and 1.06 µM with ACHN renal; 3.49 µM in the assay with DMS 114 small cell lung; 1.56 µM and 1.75 µM in the assay with HOP-62 NSCLC; 9.93 µM and 8.49 µM with SK-OV-3 ovarian; 6.96 µM with UACC-257 melanoma. In addition, the GI50 in the assay with UACC-62 melanoma was 1.75 µM. The TGI in the assay on 786-0 renal was 25 µM and 18.4 µM and 33.2 µM; in the assay with ACHN renal, 20.3 µM and 12.7 µM and 23.6 µM; in the assay on DMS 114 small cell lung it was 7.85 µM and 7.33 µM; in the assay on HOP-62 NSCLC, 15.1 µM and 7.44 µM and 2.9 µM; with HS 578T breast it was 24.7 µM; in the assay on KM20L2 colon, 31.6 µM and 45.3 µM. For the same compound, the TGI in the assay with M19-MEL melanoma was 19.2 µM and 12.5 µM; with SK-OV-3 ovarian it was 25 µM and 20.3 µM and 31.8 µM; with UACC-257 melanoma, 25 µM and 19.9 µM; with UACC-62 melanoma, 12 µM and 4.37 µM and 1.74 µM.

Turning to `CCOc1ccccc1N1C(=O)C(=O)C(c2nc3ccccc3o2)/C(=N\N)C1=O` (stereo not given), the TGI in the assay on 786-0 renal, with ACHN renal, in the assay with DMS 114 small cell lung, in the assay on HOP-62 NSCLC, with KM20L2 colon and with M19-MEL melanoma was more than 100 µM throughout. The TGI in the assay with SK-OV-3 ovarian, in the assay on UACC-257 melanoma and in the assay with UACC-62 melanoma was more than 100 µM in each case.

Regarding `CCO/C=C1\N=C(C(Cl)c2ccccc2)OC1=O` (stereo not given), the TGI in the assay with 786-0 renal, with ACHN renal, in the assay with DMS 114 small cell lung, with HOP-62 NSCLC, in the assay on KM20L2 colon and in the assay on M19-MEL melanoma was more than 100 µM in each case. In addition, the TGI in the assay with UACC-257 melanoma and with UACC-62 melanoma was more than 100 µM in each case.

Turning to `CSc1nc(SC)c2c(C(N)=S)[nH]nc2n1`, the TGI with 786-0 renal was more than 100 µM; with ACHN renal it was 74.7 µM; with DMS 114 small cell lung it was 83 µM; with HOP-62 NSCLC, 58.5 µM; in the assay with KM20L2 colon, 85 µM; in the assay with M19-MEL melanoma it was 91.7 µM. Moreover, the results for the TGI in the assay with SK-OV-3 ovarian, in the assay with UACC-257 melanoma and in the assay with UACC-62 melanoma were 70.5 µM, 52.5 µM and 55.6 µM, respectively.

For `Nc1nc(NC2C=C(CO)C(O)C2O)c([N+](=O)[O-])c(=O)[nH]1` (stereo not given), the TGI in the assay on 786-0 renal, with ACHN renal, with DMS 114 small cell lung, in the assay with HOP-62 NSCLC, in the assay on KM20L2 colon and with M19-MEL melanoma was more than 100 µM in each case. In addition, the TGI with SK-OV-3 ovarian, in the assay on UACC-257 melanoma and in the assay on UACC-62 melanoma was more than 100 µM in each case.

Take `CC(C)(O)[C@@H]1CC[C@@]2(C)CCC[C@H](O)[C@H]2C1`: the TGI with 786-0 renal, in the assay with ACHN renal, in the assay with DMS 114 small cell lung, with HOP-62 NSCLC, with KM20L2 colon and in the assay with M19-MEL melanoma was more than 100 µM in each case. Moreover, the TGI in the assay on SK-OV-3 ovarian, in the assay on UACC-257 melanoma and with UACC-62 melanoma was more than 100 µM in each case.

As to `O=C(NC12CC3CC(CC(C3)C1)C2)C(=O)c1c[nH]c2ccc([N+](=O)[O-])cc12`, the TGI in the assay with 786-0 renal is 45.9 µM; in the assay on ACHN renal it was more than 100 µM; with DMS 114 small cell lung, more than 100 µM; in the assay with HOP-62 NSCLC it was more than 59.1 µM; in the assay on KM20L2 colon, more than 100 µM; in the assay with M19-MEL melanoma, more than 100 µM. Besides, the TGI was more than 100 µM in the assay with SK-OV-3 ovarian, more than 100 µM with UACC-257 melanoma and more than 77.1 µM with UACC-62 melanoma.

`COc1cc2cc3c4c(cc(OC)c(OC)c4c2cc1OC)CCN3C(=O)N(C)C`: the TGI in the assay on 786-0 renal, with ACHN renal, in the assay with DMS 114 small cell lung, in the assay on HOP-62 NSCLC, in the assay on KM20L2 colon and in the assay with M19-MEL melanoma was more than 100 µM throughout. The TGI in the assay with SK-OV-3 ovarian, with UACC-257 melanoma and in the assay with UACC-62 melanoma was more than 100 µM throughout.

`CC(=O)OC1CC[C@@]2(C)C(CC[C@]3(C)C2CC=C2[C@@H]4CC(C)(C)CCC4(C)CCC23C)[C@@]1(C)C(=O)O` (stereo not given in full): the TGI with 786-0 renal is 45.9 µM; in the assay on ACHN renal it was 30.7 µM; in the assay with DMS 114 small cell lung it was 40.2 µM; in the assay on HOP-62 NSCLC, 42 µM; with HS 578T breast, 45.3 µM; with KM20L2 colon, 36.7 µM. Further, the TGI in the assay on M19-MEL melanoma amounted to 54 µM; in the assay with SK-OV-3 ovarian, 31.2 µM; in the assay on UACC-257 melanoma it was 43.3 µM; in the assay on UACC-62 melanoma, 36.6 µM.

In the case of `NC(=O)C(=Cc1ccc(CP(=O)(O)O)cc1)C(N)=O`, the TGI in the assay on 786-0 renal, in the assay on ACHN renal, in the assay with DMS 114 small cell lung, in the assay on HOP-62 NSCLC, in the assay on KM20L2 colon and in the assay with M19-MEL melanoma was more than 100 µM each time. Moreover, the TGI in the assay with SK-OV-3 ovarian, with UACC-257 melanoma and with UACC-62 melanoma was more than 100 µM each time.

Turning to `CC(C)[NH-].CC(C)[NH-].O.O.[Cl][Pt+2][Cl]`, the GI50 in the assay with 786-0 renal was 33.8 µM; in the assay with ACHN renal, 14.1 µM; in the assay on DMS 114 small cell lung, 10.9 µM; in the assay with HOP-62 NSCLC, 55.8 µM; in the assay on HS 578T breast it was 98.8 µM; in the assay with KM20L2 colon, 15.2 µM. The GI50 in the assay on M19-MEL melanoma was 21.3 µM; with SK-OV-3 ovarian, 28.6 µM; with UACC-257 melanoma it was 87.4 µM; in the assay with UACC-62 melanoma, 26.7 µM. Also, the TGI came to 126 µM in the assay on 786-0 renal; 107 µM in the assay on ACHN renal; 44.1 µM in the assay with DMS 114 small cell lung; 194 µM with HOP-62 NSCLC; 594 µM with HS 578T breast; 141 µM in the assay with KM20L2 colon. The TGI with M19-MEL melanoma came out at 77.1 µM; in the assay with SK-OV-3 ovarian it was 92.6 µM; in the assay on UACC-257 melanoma it was 279 µM; with UACC-62 melanoma it was 128 µM.

With `COC(=O)c1ccc(NC(=O)c2cc(OC)c(OC)c(OC)c2)cc1`, the TGI is more than 100 µM with 786-0 renal; more than 100 µM in the assay on ACHN renal; 0.706 µM in the assay with DMS 114 small cell lung; more than 100 µM in the assay on HOP-62 NSCLC; more than 100 µM in the assay with KM20L2 colon; more than 100 µM in the assay with M19-MEL melanoma. For the same compound, the TGI in the assay with SK-OV-3 ovarian is 98.4 µM; in the assay on UACC-62 melanoma, more than 100 µM.

`CCC(=O)C(C)C(=O)C(=O)C(=O)OC` (stereo not given): the TGI in the assay with 786-0 renal, with ACHN renal, in the assay on DMS 114 small cell lung, in the assay on HOP-62 NSCLC, in the assay with KM20L2 colon and in the assay with M19-MEL melanoma was more than 100 µM throughout. For the same compound, the TGI in the assay on SK-OV-3 ovarian, with UACC-257 melanoma and in the assay on UACC-62 melanoma was more than 100 µM in each case.
